Laboratory results taken from patent US20140364454A1, “METAL-CHELATING COMPOUNDS HAVING AT LEAST ONE POLYAMINO CHAIN” (UNIVERSITE DE RENNES I, priority 2011, published 2014).
Where two headings read alike, the source gives them in different places.

Tests used:
[1] = Potentiometry: stability constants and pFe3+ of the iron complex; type: physicochemical; settings: pH 7.4
Method: The complexation affinity of Quilamine with the metal ion in the organism reflects the chelating capacity or chelating power of Quilamine. This affinity can be assessed by measuring the value of pW corresponding to −log of the concentration in free metal ion W, i.e. non-complexated by the Quilamine for a ratio of respective concentrations of Quilamine (10 micromoles per liter) and metal ion (1 micromole per liter) equal to 10, at 25° C. and pH 7.4. The higher the value of pW, the greater the affinity of Quilamine with metal ion. The affinity of Quilamine with iron in its ferric form (Fe(III)) and its ferrous form (Fe(II)) is measured respectively by pFe^3+ and pFe^2+ at physiological pH (pH=7.4), at 25° C.
Potentiometry measurements were made in thermostated titration cells at 25±0.1° C., using a Metrohm 702 SM Titrino titrator connected to a Metrohm 6.0233.100. The ligand solution is prepared in a concentration of ˜1.5×10^−3 moles per liter, the solution of Fe^3+ is made from FeCl3 and titrated by complexation with a standard solution of EDTA (ethylenediaminetetracetic acid). The sample for the measurement contained approximately 0.03 millimoles per liter of ligand in a volume of 30 ml where the ionic strength is maintained at 0.1 mole per liter in using KNO3 as a support electrolyte. During the titrations, Fe^3+ is added to 0.45 or 0.9 equivalents of ligand. Each titration consists of 150-200 equilibrium points with pH varying from 2.0 to 11.5, and is repeated at least twice. The thermodynamic constants are computed with the software […] and the speciation diagram of the species is done by the Hyss program.

[2] = tested on: wild cell line (CHO) of hamster ovarian cells; experiment: Anti-proliferative effect on CHO cells, counting of cell nuclei (Hoechst 33342); type: cell-based; settings: CHO, 72 h, read-out: IC50 CHO
Method: (§1) The in vitro efficacy of different Quilamines was tested on a wild cell line (CHO) of hamster ovarian cells having PTS and a mutant cell line CHO-MG without PTS. The two cell types CHO and CHO-MG were treated, 24 hours after being seeded in 96-well microplates, by concentrations of different Quilamines ranging from 0.1 to 400 micromoles per liter. The cytostatic (anti-proliferative) effects and cytotoxic effects of Quilamine after 72 hours' treatment of the cells were assessed respectively by counting cell nuclei after DNA marking by the Hoechst 33342 fluorescent intercalant dye and by analysis of membrane damage detected by the dosing of the lactate dehydrogenase activity (LHD) in the supernatants.
The IC50 inhibitor concentration corresponding to the concentration in Quilamines enables the inhibition at 50% of the cell proliferation was deduced from the dose-effect curves of numeration of the nuclei of the living cells on the CHO and CHO-MG cell lines. […] The lower the value of IC50, the greater the efficiency of the anti-proliferative effect of the tested chelators.
(§2) A comparison was made of the cytostatic or anti-proliferative action and the cytotoxic action for 72 h of treatment by Quilamine HQ1-44 and 8-hydroxyquinoline and ICL670, on the CHO cell lines in the presence and without the presence of exogenous iron, in the form of Fe(III) citrate in a concentration of 20 micromoles per liter. The results obtained are shown in FIG. 4, FIG. 4A relating to the results on cell viability and FIG. 4B relating to the results on cell toxicity.

Caco-2 cells [3] = experiment: LDH release of Caco-2 cells; type: cell-based, human
Method: (§3) The action of Quilamines on the cell viability was analyzed on enterocyte cells of the Caco-2 tumor cell line derived from human colon carcinoma and compared with the action of ICL670 in the presence or absence of exogenous iron, after activation (DFMO) or competitive inhibition by spermidine, of the PTS. The operating conditions used are identical to those used for CHO/CHO-MG and HepG2 cells.
As in the case of the other cell lines in proliferative phase presented here above, the dose-effect curves of the action of the Quilamines on the number of viable cells (number of nuclei) are biphase curves with a cytostatic constituent for concentration values of below 30 micromoles per liter and a cytotoxic constituent with release of LDH for concentration values above 30 micromoles per liter. Only this second cytotoxic constituent is observed when the cells of the Caco-2 cell line are treated after confluence (stopping of the proliferation).

CHO cells = experiment: Cytotoxic effect on CHO cells, LDH release in supernatants; settings: CHO
Method: as §1, §2

Caco-2 cells [4] = experiment: Cell viability of proliferating Caco-2 cells (number of nuclei); type: cell-based, human
Method: as §3
The results for the measurement of the anti-proliferative effect of Quilamines, and of ICL670 on the proliferating cells (cytostatic constituent) when there is no exogenous iron have been listed in the table 4 below.

[5] = tested on: mutant cell line CHO-MG without PTS; experiment: Anti-proliferative effect on CHO-MG cells without PTS, counting of cell nuclei; type: cell-based, hamster
From the text: The IC50 inhibitor concentration corresponding to the concentration in Quilamines enables the inhibition at 50% of the cell proliferation was deduced from the dose-effect curves of numeration of the nuclei of the living cells on the CHO and CHO-MG cell lines. These dose-effect curves are sometimes bi-phase curves as in the case of Quilamine HQ1-44 which has an anti-proliferative constituent (without concomitant release of LDH in supernatant) in the range of concentrations of 0.4 to 3 micromoles per liter and a second cytotoxic constituent accompanied by membrane toxicity expressed by the release of LDH for concentrations of over […]. The lower the value of IC50, the greater the efficiency of the anti-proliferative effect of the tested chelators.
Furthermore, the ratio of the IC50 inhibitor concentrations found for the CHO-MG and the CHO cell lines (Ratio IC50 (CHO-MG/CHO)) was computed for several Quilamines according to the invention. This ratio makes it possible to estimate the selectivity of recognition of the different chelators by the PTS: the higher the ratio, the more clearly is the chelator recognized by the PTS. When this ratio is close to 1, the tested chelator is not recognized or is little recognized by the PTS.

[6] = pH 7.4; stated reference values; cited from earlier work

| SMILES | pFe3+ [1] | IC50 [2] [µM] | % LDH/control 10 μM (Caco-2 cells [3]; Caco-2 J4, 10 μM) [%] | % LDH/control 100 μM (Caco-2 cells [3]; Caco-2 J4, 100 μM) [%] | influence of exogenous iron on the cytotoxic effect (CHO cells; Fe(III) citrate 20 micromoles per liter) | chelator concentration giving cytotoxic effect with release of LDH (CHO cells; absence of exogenous iron) | Constituent 2 (10-100 μM) % cell (Caco-2 cells [4]; Caco-2 J4, no exogenous iron) [%] | IC50 (Caco-2 cells [4]; Homo sapiens, Caco-2, read-out: Constituent 2 (10-100 μM) IC50) [µM] | IC50 ([5]; CHO-MG, 72 h treatment) [µM] | Ratio IC50 (CHO-MG/CHO) ([5]; selectivity of recognition by the PTS) | pFe3+ [6] |
| --- | --- | --- | --- | --- | --- | --- | --- | --- | --- | --- | --- |
| Oc1cccc2cccnc12 [8-hydroxyquinoline, reference compound] | 20.6 | 5 | 281 | 353 | no modification | greater than or equal to 5 micromoles per liter | 100 | 5 | 10.5 | 2 | – |
| O=C(O)CN(CC(=O)O)Cc1cc2c(cc1O)Oc1cc(O)c(CN(CC(=O)O)CC(=O)O)cc1C21OC(=O)c2ccccc21 [Calcein, reference compound] | – | – | – | – | – | – | – | – | – | – | 20.3 |
| O=C(O)CC(O)(CC(=O)O)C(=O)O [citrate] | – | – | – | – | – | – | – | – | – | – | 19.3 |
